According to the supplement of paper PMC10307832:

How the values were obtained:
Test in all cases: relative viability (nuclei count vs DMSO), 5 days (fraction); higher = more cells survive
[1] = compound: C1CNCCC1C2=CC(=NN2)C3=CC=NC=C3 + C[C@@H](Oc1cc(-c2cnn(C3CCNCC3)c2)cnc1N)c1c(Cl)ccc(F)c1Cl [Crizotinib] (partner 1 µM)
In short: (§1)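 Relative viability was taken as the ratio of nuclei in treated wells to nuclei in vehicle wells. Lung cancer cell lines in 1536-well plates received compounds by pin tool one day after seeding, either one drug alone or a fixed anchor-drug dose plus five library-drug doses (not always all listed) in √10 steps. Nuclei were counted on 4× images after 5 days of treatment, and values are medians of duplicate plates.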

[2] = compound: C[C@@H](N)c1ccc(C(=O)Nc2ccnc3[nH]ccc23)cc1 + O=C(c1cc(Cc2n[nH]c(=O)c3ccccc23)ccc1F)N1CCN(C(=O)C2CC2)CC1 [Olaparib] (partner 8 µM)
In short: as §1

[3] = compound: C[C@@H](N)c1ccc(C(=O)Nc2ccnc3[nH]ccc23)cc1 + CS(=O)(=O)N1CCN(Cc2cc3nc(-c4cccc5[nH]ncc45)nc(N4CCOCC4)c3s2)CC1 [Pictilisib] (partner 1 µM)
In short: as §1

[4] = compound: C1CNCCC1C2=CC(=NN2)C3=CC=NC=C3 + CC(=O)Nc1cccc(-n2c(=O)n(C3CC3)c(=O)c3c(Nc4ccc(I)cc4F)n(C)c(=O)c(C)c32)c1 [Trametinib] (partner 0.02 µM)
In short: as §1

Work on NCI-H838 yielded a relative viability ([1]; first compound 0.08 µM) of 0.844, a relative viability ([1]; first compound 0.8 µM) of 0.924 and a relative viability ([1]; first compound 2.53 µM) of 0.954. For the same cell line, the relative viability ([1]; first compound 8 µM) was 0.796, the relative viability ([2]; first compound 0.04 µM) was 0.789 and the relative viability ([2]; first compound 0.1265 µM) was 0.826. The relative viability ([2]; first compound 0.4 µM) was 0.658, the relative viability ([2]; first compound 1.265 µM) was 0.397 and the relative viability ([2]; first compound 4 µM) was 0.283. For the same cell line, the relative viability ([3]; first compound 0.04 µM) was 0.402, the relative viability ([3]; first compound 0.1265 µM) was 0.421 and the relative viability ([3]; first compound 0.4 µM) was 0.335. For the same cell line, the relative viability ([3]; first compound 1.265 µM) was 0.31, the relative viability ([3]; first compound 4 µM) was 0.317 and the relative viability ([4]; first compound 0.08 µM) was 0.518. It also gave a relative viability ([4]; first compound 0.8 µM) of 0.494, a relative viability ([4]; first compound 2.53 µM) of 0.589 and a relative viability ([4]; first compound 8 µM) of 0.512.

LK-2 gave a relative viability ([1]; first compound 0.08 µM) of 0.232, a relative viability ([1]; first compound 0.8 µM) of 0.252 and a relative viability ([1]; first compound 2.53 µM) of 0.221. It also gave a relative viability ([1]; first compound 8 µM) of 0.265, a relative viability ([2]; first compound 0.04 µM) of 0.732 and a relative viability ([2]; first compound 0.1265 µM) of 0.658. The relative viability ([2]; first compound 0.4 µM) was 0.746, the relative viability ([2]; first compound 1.265 µM) was 0.482 and the relative viability ([2]; first compound 4 µM) was 0.864. The relative viability ([3]; first compound 0.04 µM) was 0.79, the relative viability ([3]; first compound 0.1265 µM) was 0.537 and the relative viability ([3]; first compound 0.4 µM) was 0.739. The relative viability ([3]; first compound 4 µM) was 0.822, the relative viability ([4]; first compound 0.08 µM) was 0.605 and the relative viability ([4]; first compound 0.8 µM) was 0.761. For the same cell line, the relative viability ([4]; first compound 2.53 µM) was 0.591 and the relative viability ([4]; first compound 8 µM) was 0.88.

In the case of NCI-H1650, the relative viability ([1]; first compound 0.08 µM) is reported as 0.43, the relative viability ([1]; first compound 0.8 µM) is reported as 1.08 and the relative viability ([1]; first compound 2.53 µM) is reported as 1.07. It also gave a relative viability ([1]; first compound 8 µM) of 0.963, a relative viability ([2]; first compound 0.04 µM) of 0.81 and a relative viability ([2]; first compound 0.1265 µM) of 0.943. It also gave a relative viability ([2]; first compound 0.4 µM) of 0.812, a relative viability ([2]; first compound 1.265 µM) of 0.822 and a relative viability ([2]; first compound 4 µM) of 0.763. It also gave a relative viability ([3]; first compound 0.04 µM) of 0.672, a relative viability ([3]; first compound 0.1265 µM) of 0.584 and a relative viability ([3]; first compound 0.4 µM) of 0.595. The relative viability ([3]; first compound 1.265 µM) was 0.318, the relative viability ([3]; first compound 4 µM) was 0.586 and the relative viability ([4]; first compound 0.08 µM) was 0.506. It also gave a relative viability ([4]; first compound 0.8 µM) of 0.558, a relative viability ([4]; first compound 2.53 µM) of 0.569 and a relative viability ([4]; first compound 8 µM) of 0.578.

For NCI-H322M, the relative viability ([1]; first compound 0.08 µM) was 0.851, the relative viability ([1]; first compound 0.8 µM) was 0.875 and the relative viability ([1]; first compound 2.53 µM) was 0.878. The relative viability ([1]; first compound 8 µM) was 0.955, the relative viability ([2]; first compound 0.04 µM) was 0.862 and the relative viability ([2]; first compound 0.1265 µM) was 0.944. It also gave a relative viability ([2]; first compound 0.4 µM) of 0.901, a relative viability ([2]; first compound 1.265 µM) of 1.01 and a relative viability ([2]; first compound 4 µM) of 0.979. The relative viability ([3]; first compound 0.04 µM) was 0.681, the relative viability ([3]; first compound 0.1265 µM) was 0.536 and the relative viability ([3]; first compound 0.4 µM) was 0.561. It also gave a relative viability ([3]; first compound 4 µM) of 0.731, a relative viability ([4]; first compound 0.08 µM) of 0.511 and a relative viability ([4]; first compound 0.8 µM) of 0.533. For the same cell line, the relative viability ([4]; first compound 2.53 µM) was 0.516 and the relative viability ([4]; first compound 8 µM) was 0.575.

For NCI-H661, the relative viability ([1]; first compound 0.08 µM) was 1.15, the relative viability ([1]; first compound 0.8 µM) was 0.96 and the relative viability ([1]; first compound 2.53 µM) was 1.05. For the same cell line, the relative viability ([1]; first compound 8 µM) was 0.902, the relative viability ([2]; first compound 0.04 µM) was 0.734 and the relative viability ([2]; first compound 0.1265 µM) was 0.722. It also gave a relative viability ([2]; first compound 0.4 µM) of 0.895, a relative viability ([2]; first compound 1.265 µM) of 0.706 and a relative viability ([2]; first compound 4 µM) of 0.597. It also gave a relative viability ([3]; first compound 0.04 µM) of 0.433, a relative viability ([3]; first compound 0.1265 µM) of 0.54 and a relative viability ([3]; first compound 0.4 µM) of 0.454. For the same cell line, the relative viability ([3]; first compound 1.265 µM) was 0.351, the relative viability ([3]; first compound 4 µM) was 0.509 and the relative viability ([4]; first compound 0.08 µM) was 0.568. For the same cell line, the relative viability ([4]; first compound 0.8 µM) was 0.561, the relative viability ([4]; first compound 2.53 µM) was 0.586 and the relative viability ([4]; first compound 8 µM) was 0.596.

Cell Line NCI-H2228 has a relative viability ([1]; first compound 0.08 µM) of 0.566, a relative viability ([1]; first compound 0.8 µM) of 0.428 and a relative viability ([1]; first compound 2.53 µM) of 0.486. For the same cell line, the relative viability ([1]; first compound 8 µM) was 0.482, the relative viability ([2]; first compound 0.04 µM) was 0.535 and the relative viability ([2]; first compound 0.1265 µM) was 0.726. It also gave a relative viability ([2]; first compound 0.4 µM) of 0.714, a relative viability ([2]; first compound 1.265 µM) of 0.917 and a relative viability ([2]; first compound 4 µM) of 0.771. The relative viability ([3]; first compound 0.04 µM) was 0.441, the relative viability ([3]; first compound 0.1265 µM) was 0.503 and the relative viability ([3]; first compound 0.4 µM) was 0.335. The relative viability ([3]; first compound 1.265 µM) was 0.319, the relative viability ([3]; first compound 4 µM) was 0.491 and the relative viability ([4]; first compound 0.08 µM) was 0.56. It also gave a relative viability ([4]; first compound 0.8 µM) of 0.37, a relative viability ([4]; first compound 2.53 µM) of 0.696 and a relative viability ([4]; first compound 8 µM) of 0.7.

Cell Line NCI-H520 has a relative viability ([1]; first compound 0.08 µM) of 0.742, a relative viability ([1]; first compound 0.8 µM) of 0.921 and a relative viability ([1]; first compound 2.53 µM) of 0.727. For the same cell line, the relative viability ([1]; first compound 8 µM) was 0.736, the relative viability ([2]; first compound 0.04 µM) was 0.359 and the relative viability ([2]; first compound 0.1265 µM) was 0.332. For the same cell line, the relative viability ([2]; first compound 0.4 µM) was 0.29, the relative viability ([2]; first compound 1.265 µM) was 0.373 and the relative viability ([2]; first compound 4 µM) was 0.318. The relative viability ([3]; first compound 0.04 µM) was 0.33, the relative viability ([3]; first compound 0.1265 µM) was 0.301 and the relative viability ([3]; first compound 0.4 µM) was 0.29. For the same cell line, the relative viability ([3]; first compound 1.265 µM) was 0.396, the relative viability ([3]; first compound 4 µM) was 0.504 and the relative viability ([4]; first compound 0.08 µM) was 0.609. It also gave a relative viability ([4]; first compound 0.8 µM) of 0.776, a relative viability ([4]; first compound 2.53 µM) of 0.666 and a relative viability ([4]; first compound 8 µM) of 0.725.

Cell Line NCI-H441 has a relative viability ([1]; first compound 0.08 µM) of 0.709, a relative viability ([1]; first compound 0.8 µM) of 0.713 and a relative viability ([1]; first compound 2.53 µM) of 0.853. For the same cell line, the relative viability ([1]; first compound 8 µM) was 0.862, the relative viability ([2]; first compound 0.04 µM) was 0.544 and the relative viability ([2]; first compound 0.1265 µM) was 0.505. For the same cell line, the relative viability ([2]; first compound 0.4 µM) was 0.539, the relative viability ([2]; first compound 1.265 µM) was 0.562 and the relative viability ([2]; first compound 4 µM) was 0.35. The relative viability ([3]; first compound 0.04 µM) was 0.549, the relative viability ([3]; first compound 0.1265 µM) was 0.569 and the relative viability ([3]; first compound 0.4 µM) was 0.553. For the same cell line, the relative viability ([3]; first compound 1.265 µM) was 0.4, the relative viability ([3]; first compound 4 µM) was 0.458 and the relative viability ([4]; first compound 0.08 µM) was 0.425. For the same cell line, the relative viability ([4]; first compound 0.8 µM) was 0.469, the relative viability ([4]; first compound 2.53 µM) was 0.555 and the relative viability ([4]; first compound 8 µM) was 0.461.
